Measured values from patent US10011615B2, “Heterobicyclo-substituted [1,2,4]triazolo[1,5-c]quinazolin-5-amine compounds with A2A anatagonist properties” (Merck Sharp & Dohme Corp., priority 2012, dated 2018).
Several values for one entry are separate records, joined by “and”; a condition that tells them apart may be missing. Equal values may be shown once.

The molecules below were run against T1, human A2a receptor (Homo sapiens, UniProt P29274) (assay: A2a receptor competition binding assay using Scintillation Proximity technology). Details: membranes from HEK293 cells expressing human A2a receptor; 0.5 nM tritiated radioligand; SPA beads; 1 h room temperature.
T1 construct: purchased Perkin-Elmer RBHA2AM400UA; host or cells: HEK293 cell membranes
Protocol: Binding affinities of compounds of the invention for the human A2a receptor were determined in a competition binding assay using Scintillation Proximity technology. Thus, 0.3 μg of membranes from HEK293 cells expressing the human A2a receptor were incubated with a compound of the invention at concentrations ranging from 3000 nM to 0.15 nM in a reaction mixture containing also 0.5 nM of a tritiated form of 5-amino-7-[2-phenethyl]-2-(furan-2-yl)-7H-pyrazolo[4,3-e][1,2,4]triazolo[1,5-c]pyrimidine (the tritiated compound) and 100 μg of wheat germ agglutin-coated yttrium silicate SPA beads for one hour at room temperature with agitation. The beads were then allowed to settle to the bottom of the wells for 1 hr, after which the membrane-associated radioactivity was determined by scintillation counting in a TopCount microplate reader. Ki values were determined using the Cheng-Prusoff equation.
Summary of Materials and Methods Used in A2a Activity Determination:
HEK293 cells expressing the human, rat, dog or monkey adenosine 2a receptor (Purchased from Perkin-Elmer # RBHA2AM400UA).
The Tritiated compound was prepared in-house by MRL Radiochemistry according to published methods.
Wheat germ agglutinin-coated yttrium silicate SPA beads (GE Healthcare#RPNQ0023). Dilute to 25 mg/ml in assay buffer.
Assay Buffer was prepared in house: Dulbecco's calcium and magnesium free phosphate buffered saline+10 mM MgCl2
Adenosine deaminase from calf intestine, 10 mg/2 ml (Roche) 10 102 105 001).
A2a antagonist standard (9-chloro-1-(2-furanyl)-[1,2,4]triazolo1,5-c]quinazolin-5-amine from Tocris Bioscience)
Make eight 1:3 serial dilutions in 100% DMSO from a 3 mM compound stock
Transfer 50 nl of compound into a 384-well OptiPlate (Perkin Elmer).
Typically, final concentrations of compound used in the assay ranged from 3000 nM to 0.152 nM.
Dilute a solution of the Tritiated compound to 1.25 nM in assay buffer. This is a 2.5× solution. The final concentration in the assay is 0.5 nM. Calculate the concentration by counting two 5 μl aliquots.
Use 0.25 ug of membrane/well. Dilute membranes to 9.7 μg/ml in assay buffer. Treat with 20 ug/ml adenosine deaminase (ADA) for 15 minutes at room temperature to degrade endogenous adenosine.
Use 100 μg/well wheat germ agglutinin-coated yttrium silicate SPA beads.
Mix ADA-treated membranes and SPA beads together for 30 min prior to assay.
To the Perkin-Elmer Optiplate-384 containing the compound titration add 20 μl of 2.5× solution of the Tritiated compound and 30 μl of the membrane-bead mixture. Incubate for one hour at room temperature with agitation.
Include total binding (assay buffer+1% DMSO) and non-specific binding (CGS15943, 1 μM) wells.
Allow the beads to settle for one hour.
A curve fitting program (i.e., Prism, Activity Base, Chemcart) is used to determine the EC50. The Ki value is calculated using the Cheng-Prusoff equation: K i=EC50/(1+(radioligand concentration/Kd)).

T1 sequence (P29274 whole entry): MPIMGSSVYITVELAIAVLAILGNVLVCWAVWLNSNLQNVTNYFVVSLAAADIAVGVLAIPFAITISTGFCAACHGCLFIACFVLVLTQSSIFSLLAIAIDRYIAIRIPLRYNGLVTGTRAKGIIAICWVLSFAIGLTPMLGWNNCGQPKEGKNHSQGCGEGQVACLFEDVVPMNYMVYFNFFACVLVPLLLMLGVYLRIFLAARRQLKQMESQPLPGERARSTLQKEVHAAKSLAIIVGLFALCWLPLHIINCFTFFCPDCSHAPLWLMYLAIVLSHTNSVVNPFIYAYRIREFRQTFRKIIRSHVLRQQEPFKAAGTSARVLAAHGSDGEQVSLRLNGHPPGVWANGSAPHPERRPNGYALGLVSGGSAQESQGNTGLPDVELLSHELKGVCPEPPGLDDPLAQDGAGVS

Structure (SMILES)	EC50
COc1cccc2c1nc(N)n1nc(CCN3CCn4cc(C(F)(F)F)nc4C3)nc21 [Ex-58, 7-methoxy-2-(2-(2-(trifluoromethyl)-5,6-dihydroimidazo[1,2-a]pyrazin-7(8H)-yl)ethyl)-[1,2,4]triazolo[1,5-c]quinazolin-5-amine]	0.9 nM
COc1cccc2c1nc(N)n1nc(CCN3CCCn4nccc43)nc21 [Ex-59, 2-(2-(6,7-dihydropyrazolo[1,5-a]pyrimidin-4(5H)-yl)ethyl)-7-methoxy-[1,2,4]triazolo[1,5-c]quinazolin-5-amine]	9.6 nM
COc1cccc2c1nc(N)n1nc(CCN3CCCn4nc(C)cc4C3)nc21 [Ex-60, 7-methoxy-2-(2-(2-methyl-7,8-dihydro-4H-pyrazolo[1,5-a][1,4]diazepin-5(6H)-yl)ethyl)-[1,2,4]triazolo[1,5-c]quinazolin-5-amine]	2.3 nM
COc1cccc2c1nc(N)n1nc(CCN3CCCn4nc(C#N)cc4C3)nc21 [Ex-61, 5-(2-(5-amino-7-methoxy-[1,2,4]triazolo[1,5-c]quinazolin-2-yl)ethyl)-5,6,7,8-tetrahydro-4H-pyrazolo[1,5-a][1,4]diazepine-2-carbonitrile]	2.5 nM
COc1cccc2c1nc(N)n1nc(CCN3Cc4ccccc4C(C)(C)C3)nc21 [Ex-62, 2-(2-(4,4-dimethyl-3,4-dihydroisoquinolin-2(1H)-yl)ethyl)-7-methoxy-[1,2,4]triazolo[1,5-c]quinazolin-5-amine]	6.2 nM
COc1cccc2c1nc(N)n1nc(CCN3Cc4ccc(N5CCN(C)CC5)nc4C3)nc21 [Ex-63, 7-methoxy-2-(2-(2-(4-methylpiperazin-1-yl)-5H-pyrrolo[3,4-b]pyridin-6(7H)-yl)ethyl)-[1,2,4]triazolo[1,5-c]quinazolin-5-amine]	5.8 nM
COc1cccc2c1nc(N)n1nc(CCN3Cc4ccc(N5CCOCC5)nc4C3)nc21 [Ex-64]	6.9 nM
COc1cccc2c1nc(N)n1nc(CCN3Cc4ccc(N5CCCC5)nc4C3)nc21 [Ex-65]	13.6 nM
CCN1CCN(c2ccc3c(n2)CN(CCc2nc4c5cccc(OC)c5nc(N)n4n2)C3)CC1 [Ex-66]	16.6 nM
COc1cccc2c1nc(N)n1nc(CCN3Cc4ccc(N5CCOC(C)(C)C5)nc4C3)nc21 [Ex-68]	7 nM
COc1cccc2c1nc(N)n1nc(CCN3Cc4ccc(N5C[C@@H](C)O[C@@H](C)C5)nc4C3)nc21 [Ex-69]	5.2 nM
COc1cccc2c1nc(N)n1nc(CCN3Cc4ccc(N5CCN(CC6CC6)CC5)nc4C3)nc21 [Ex-70]	6.8 nM
COc1cccc2c1nc(N)n1nc(CCN3Cc4ccc(N5CCN(c6ccc(F)cc6)CC5)nc4C3)nc21 [Ex-71]	2.9 nM
COc1cccc2c1nc(N)n1nc(CCN3Cc4ccc(N5CCC(N6CCOCC6)CC5)nc4C3)nc21 [Ex-72]	5 nM
CCN1CCN(c2ccnc3c2CCN(CCc2nc4c5cccc(OC)c5nc(N)n4n2)C3)CC1 [Ex-73, 2-(2-(4-(4-ethylpiperazin-1-yl)-5,6-dihydro-1,7-naphthyridin-7(8H)-yl)ethyl)-7-methoxy-[1,2,4]triazolo[1,5-c]quinazolin-5-amine]	3 nM
CCN(CC)c1ccnc2c1CCN(CCc1nc3c4cccc(OC)c4nc(N)n3n1)C2 [Ex-74]	4.3 nM
COc1cccc2c1nc(N)n1nc(CCN3CCc4c(N5CCC(F)(F)C5)ccnc4C3)nc21 [Ex-76]	3.7 nM
COc1cccc2c1nc(N)n1nc(CC(=O)N3Cc4cccnc4C3)nc21 [Ex-77, 2-(5-amino-7-methoxy[1,2,4]triazolo[1,5-c]quinazolin-2-yl)-1-(5,7-dihydro-6H-pyrrolo[3,4-b]pyridin-6-yl)ethanone]	36.2 nM
COc1cccc2c1nc(N)n1nc(CC(=O)N3CCc4ccccc4CC3)nc21 [Ex-78]	13.8 nM
Nc1nc2c(OCF)cccc2c2nc(CCN3Cc4cccnc4C3)nn12 [Ex-79, 2-(2-(5H-pyrrolo[3,4-b]pyridin-6(7H)-yl)ethyl)-7-(fluoromethoxy)-[1,2,4]triazolo[1,5-c]quinazolin-5-amine]	22.3 nM
Nc1nc2c(Cl)cccc2c2nc(CCN3Cc4ccc(F)cc4C3)nn12 [Ex-80, 7-chloro-2-(2-(5-fluoroisoindolin-2-yl)ethyl)-[1,2,4]triazolo[1,5-c]quinazolin-5-amine]	12 nM
Nc1nc2c(Cl)cccc2c2nc(CCN3CCCc4ccccc43)nn12 [Ex-82]	24.7 nM
Nc1nc2c(F)cccc2c2nc(CCN3Cc4cccnc4C3)nn12 [Ex-83, 2-[2-(5,7-dihydro-6H-pyrrolo[3,4-b]pyridin-6-yl)ethyl]-7-fluoro[1,2,4]triazolo[1,5-c]quinazolin-5-amine]	15.9 nM
Nc1nc2c(F)cccc2c2nc(CCN3CCCc4ccccc43)nn12 [Ex-84]	6.3 nM
Nc1nc2c(F)cccc2c2nc(CCN3Cc4ccc(F)cc4C3)nn12 [Ex-85]	22.2 nM
CCc1nnc2n1CCN(CCc1nc3c4cccc(F)c4nc(N)n3n1)C2 [Ex-86]	6.7 nM
Nc1nc2c(F)cccc2c2nc(CCN3CCc4ccccc4C3)nn12 [Ex-87]	19.1 nM

Structure (SMILES)	EC50
Nc1nc2c(F)cccc2c2nc(CCN3Cc4cnc(C(F)(F)F)nc4C3)nn12 [Ex-88]	42.3 nM
Nc1nc2c(F)cccc2c2nc(CCN3Cc4cccc(F)c4C3)nn12 [Ex-89]	47.7 nM
Cc1cccc2c1nc(N)n1nc(CCN3CCc4ccccc4C3)nc21 [Ex-90, 2-(2-(3,4-dihydroisoquinolin-2(1H)-yl)ethyl)-7-methyl-[1,2,4]triazolo[1,5-c]quinazolin-5-amine]	27.9 nM
Nc1nc2cc(F)ccc2c2nc(CCN3Cc4ccc(F)cc4C3)nn12 [Ex-91, 8-fluoro-2-[2-(5-fluoro-1,3-dihydro-2H-isoindol-2-yl)ethyl][1,2,4]triazolo[1,5-c]quinazolin-5-amine]	26.1 nM
Nc1nc2cc(F)ccc2c2nc(CCN3Cc4cccnc4C3)nn12 [Ex-92]	73.7 nM
Nc1nc2cc(F)ccc2c2nc(CCN3CCc4ccccc4C3)nn12 [Ex-93]	37.5 nM
Nc1nc2cc(F)ccc2c2nc(CCN3CCCc4ccccc43)nn12 [Ex-94]	27.3 nM
CCc1nnc2n1CCN(CCc1nc3c4ccc(F)cc4nc(N)n3n1)C2 [Ex-95]	16.5 nM
Nc1nc2cc(F)ccc2c2nc(CCN3Cc4cccc(F)c4C3)nn12 [Ex-96]	56.2 nM
COc1ccc2c(nc(N)n3nc(CCN4Cc5cccnc5C4)nc23)c1OC [Ex-97]	238 nM
COc1cc(F)cc2c1nc(N)n1nc(CCN3Cc4cccnc4C3)nc21 [Ex-98]	19 nM
Nc1nc2cc(F)c(F)cc2c2nc(CCN3Cc4cccnc4C3)nn12 [Ex-99]	112 nM
Nc1nc2c(F)cc(F)cc2c2nc(CCN3Cc4cccnc4C3)nn12 [Ex-100]	31.2 nM
COc1cccc2c1nc(N)n1nc(C[C@H](C(F)F)N3Cc4cccnc4C3)nc21 [Ex-102]	55.2 nM
COc1cccc2c1nc(N)n1nc(C[C@@H](C(F)F)N3Cc4cccnc4C3)nc21 [Ex-103]	8.3 nM
COc1cccc2c1nc(N)n1nc(CC(CF)N3Cc4cccnc4C3)nc21 (centres unmarked) [Ex-104]	10.1 nM and 14.3 nM
COc1cccc2c1nc(N)n1nc(C[C@H](C)N3Cc4cccnc4C3)nc21 [Ex-106]	19.5 nM
COc1cccc2c1nc(N)n1nc(C[C@@H](C)N3Cc4cccnc4C3)nc21 [Ex-107]	6.9 nM
COc1cccc2c1nc(N)n1nc(CC(N3Cc4cccnc4C3)C(F)(F)F)nc21 (centres unmarked) [Ex-108]	17.9 nM
COc1cccc2c1nc(N)n1nc(C[C@H](N3Cc4cccnc4C3)C(F)(F)F)nc21 [Ex-109]	12.2 nM
COc1cccc2c1nc(N)n1nc(C[C@@H](N3Cc4cccnc4C3)C(F)(F)F)nc21 [Ex-110]	39.9 nM
CCC(Cc1nc2c3cccc(OC)c3nc(N)n2n1)N1Cc2cccnc2C1 (centres unmarked) [Ex-111]	11.9 nM
CC[C@H](Cc1nc2c3cccc(OC)c3nc(N)n2n1)N1Cc2cccnc2C1 [Ex-112]	4.9 nM
CC[C@@H](Cc1nc2c3cccc(OC)c3nc(N)n2n1)N1Cc2cccnc2C1 [Ex-113]	22.8 nM
COc1cccc2c1nc(N)n1nc(CC(C)N3Cc4ccc(F)cc4C3)nc21 (centres unmarked) [Ex-114]	4.3 nM
CCCC(Cc1nc2c3cccc(OC)c3nc(N)n2n1)N1Cc2cccnc2C1 (centres unmarked) [Ex-115]	21.6 nM
